# Experimental data as given in PubChem BioAssay (NCI).
#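 Compound exposure: 48 hours, 5 concentrations, 96-well plates. TGI denotes the concentration required for complete inhibition of growth.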
# Assays:
# Assay in all cases: NCI tumour cell line growth inhibition, 48 h
# HS 578T breast = system: HS 578T breast
# NCI-H460 lung = system: NCI-H460 lung
# SF-268 CNS = system: SF-268 CNS
# HL-60(TB) leukemia = system: HL-60(TB) leukemia
# A498 renal = system: A498 renal
# OVCAR-8 ovarian = system: OVCAR-8 ovarian
# IGROV1 ovarian = system: IGROV1 ovarian
# UACC-257 melanoma = system: UACC-257 melanoma
# NCI-H23 lung = system: NCI-H23 lung
# SNB-75 CNS = system: SNB-75 CNS
# HOP-62 NSCLC = system: HOP-62 NSCLC
# ACHN renal = system: ACHN renal
# MDA-MB-435 = system: MDA-MB-435
# TK-10 renal = system: TK-10 renal
# OVCAR-4 ovarian = system: OVCAR-4 ovarian
# HCT-116 colon = system: HCT-116 colon
# 786-0 renal = system: 786-0 renal
# K-562 leukemia = system: K-562 leukemia
# MDA-N = system: MDA-N
# DU-145 prostate = system: DU-145 prostate
# OVCAR-5 ovarian = system: OVCAR-5 ovarian
# KM12 colon = system: KM12 colon
# SF-539 CNS = system: SF-539 CNS
# A549 NSCLC = system: A549 NSCLC
# HCT-15 colon = system: HCT-15 colon
# SR leukemia = system: SR leukemia
# SN12C renal = system: SN12C renal
# MDA-MB-231 breast = system: MDA-MB-231 breast
# RXF 393 renal = system: RXF 393 renal
# SF-295 CNS = system: SF-295 CNS
# UACC-62 melanoma = system: UACC-62 melanoma
# T-47D breast = system: T-47D breast
# U251 CNS = system: U251 CNS
# HT29 colon = system: HT29 colon
# SK-MEL-28 melanoma = system: SK-MEL-28 melanoma
# MCF7 breast = system: MCF7 breast
# PC-3 prostate = system: PC-3 prostate
# COLO 205 colon = system: COLO 205 colon
# NCI/ADR-RES ovarian = system: NCI/ADR-RES ovarian
# LOX IMVI melanoma = system: LOX IMVI melanoma
# CAKI-1 renal = system: CAKI-1 renal
# MOLT-4 leukemia = system: MOLT-4 leukemia
# NCI-H226 lung = system: NCI-H226 lung
# MALME-3M melanoma = system: MALME-3M melanoma
# OVCAR-3 ovarian = system: OVCAR-3 ovarian
# EKVX NSCLC = system: EKVX NSCLC
# NCI-H522 lung = system: NCI-H522 lung
# M14 melanoma = system: M14 melanoma
# RPMI-8226 leukemia = system: RPMI-8226 leukemia
# SNB-19 CNS = system: SNB-19 CNS
# HCC-2998 colon = system: HCC-2998 colon
# CCRF-CEM leukemia = system: CCRF-CEM leukemia
# UO-31 renal = system: UO-31 renal
# SW-620 colon = system: SW-620 colon
# SK-OV-3 ovarian = system: SK-OV-3 ovarian
# HOP-92 NSCLC = system: HOP-92 NSCLC
# SK-MEL-5 melanoma = system: SK-MEL-5 melanoma
# SK-MEL-2 melanoma = system: SK-MEL-2 melanoma
compound,measurement,setting,value
CCCCCCCCCc1c(Cl)nc(Cl)nc1Cl,TGI,HS 578T breast,58.3 µM
same,TGI,NCI-H460 lung,37.4 µM
same,TGI,SF-268 CNS,34.6 µM
same,TGI,HL-60(TB) leukemia,18.2 µM
same,TGI,A498 renal,34 µM
same,TGI,OVCAR-8 ovarian,32.1 µM
same,TGI,IGROV1 ovarian,26.6 µM
same,TGI,UACC-257 melanoma,34.6 µM
same,TGI,NCI-H23 lung,25.7 µM
same,TGI,SNB-75 CNS,29.6 µM
same,TGI,HOP-62 NSCLC,37.5 µM
same,TGI,ACHN renal,33.7 µM
same,TGI,MDA-MB-435,26.7 µM
same,TGI,TK-10 renal,37.8 µM
same,TGI,OVCAR-4 ovarian,28.9 µM
same,TGI,HCT-116 colon,27.9 µM
same,TGI,786-0 renal,27.8 µM
same,TGI,K-562 leukemia,19.4 µM
same,TGI,MDA-N,32.2 µM
same,TGI,DU-145 prostate,31.2 µM
same,TGI,OVCAR-5 ovarian,35.9 µM
same,TGI,KM12 colon,> 65 µM
same,TGI,SF-539 CNS,32.6 µM
same,TGI,A549 NSCLC,37.6 µM
same,TGI,HCT-15 colon,27.5 µM
same,TGI,SR leukemia,7.93 µM
same,TGI,SN12C renal,26.8 µM
same,TGI,MDA-MB-231 breast,25 µM
same,TGI,RXF 393 renal,32.3 µM
same,TGI,SF-295 CNS,39.3 µM
same,TGI,UACC-62 melanoma,38.8 µM
same,TGI,T-47D breast,27 µM
same,TGI,U251 CNS,33 µM
same,TGI,HT29 colon,34 µM
same,TGI,SK-MEL-28 melanoma,35.7 µM
same,TGI,MCF7 breast,36.5 µM
same,TGI,PC-3 prostate,29.8 µM
same,TGI,COLO 205 colon,37.7 µM
same,TGI,NCI/ADR-RES ovarian,35.8 µM
same,TGI,LOX IMVI melanoma,4.34 µM
same,TGI,CAKI-1 renal,12.1 µM
same,TGI,MOLT-4 leukemia,5.18 µM
same,TGI,NCI-H226 lung,20.1 µM
same,TGI,MALME-3M melanoma,25.6 µM
same,TGI,OVCAR-3 ovarian,32 µM
same,TGI,EKVX NSCLC,38.2 µM
same,TGI,NCI-H522 lung,12.1 µM
same,TGI,M14 melanoma,11 µM
same,TGI,RPMI-8226 leukemia,37.5 µM
same,TGI,SNB-19 CNS,30.8 µM
same,TGI,HCC-2998 colon,8.89 µM
same,TGI,CCRF-CEM leukemia,5.79 µM
same,TGI,UO-31 renal,32.2 µM
same,TGI,SW-620 colon,26.3 µM
same,TGI,SK-OV-3 ovarian,36.4 µM
same,TGI,HOP-92 NSCLC,29.4 µM
same,TGI,SK-MEL-5 melanoma,25.6 µM
Cc1ccc(S(=O)(=O)NNC(=O)Nc2ccc(Cl)cc2)cc1,TGI,HS 578T breast,> 100 µM
same,TGI,NCI-H460 lung,> 100 µM
same,TGI,SF-268 CNS,> 100 µM
same,TGI,HL-60(TB) leukemia,> 100 µM
same,TGI,A498 renal,> 100 µM
same,TGI,OVCAR-8 ovarian,> 100 µM
same,TGI,IGROV1 ovarian,> 100 µM
same,TGI,UACC-257 melanoma,> 100 µM
same,TGI,NCI-H23 lung,> 100 µM
same,TGI,SNB-75 CNS,99.7 µM
same,TGI,HOP-62 NSCLC,> 100 µM
same,TGI,ACHN renal,> 100 µM
same,TGI,MDA-MB-435,> 100 µM
same,TGI,TK-10 renal,> 100 µM
same,TGI,OVCAR-4 ovarian,> 100 µM
same,TGI,HCT-116 colon,> 100 µM
same,TGI,786-0 renal,> 100 µM
same,TGI,K-562 leukemia,> 100 µM
same,TGI,MDA-N,> 100 µM
same,TGI,DU-145 prostate,> 100 µM
same,TGI,OVCAR-5 ovarian,> 100 µM
same,TGI,KM12 colon,> 100 µM
same,TGI,SF-539 CNS,> 100 µM
same,TGI,A549 NSCLC,> 100 µM
same,TGI,HCT-15 colon,> 100 µM
same,TGI,SR leukemia,> 100 µM
same,TGI,SN12C renal,> 100 µM
same,TGI,MDA-MB-231 breast,> 100 µM
same,TGI,RXF 393 renal,> 100 µM
same,TGI,SK-MEL-2 melanoma,> 100 µM
same,TGI,SF-295 CNS,> 100 µM
same,TGI,UACC-62 melanoma,> 100 µM
same,TGI,T-47D breast,> 100 µM
same,TGI,U251 CNS,> 100 µM
same,TGI,HT29 colon,> 100 µM
same,TGI,SK-MEL-28 melanoma,> 100 µM
same,TGI,MCF7 breast,> 100 µM
same,TGI,PC-3 prostate,> 100 µM
same,TGI,COLO 205 colon,> 100 µM
same,TGI,NCI/ADR-RES ovarian,> 100 µM
same,TGI,CAKI-1 renal,> 100 µM
same,TGI,MOLT-4 leukemia,> 100 µM
same,TGI,NCI-H226 lung,> 100 µM
same,TGI,MALME-3M melanoma,> 100 µM
same,TGI,EKVX NSCLC,> 100 µM
same,TGI,NCI-H522 lung,> 100 µM
same,TGI,M14 melanoma,> 100 µM
same,TGI,RPMI-8226 leukemia,> 100 µM
same,TGI,SNB-19 CNS,> 100 µM
same,TGI,HCC-2998 colon,> 100 µM
same,TGI,CCRF-CEM leukemia,> 100 µM
same,TGI,UO-31 renal,> 100 µM
same,TGI,SW-620 colon,> 100 µM
same,TGI,SK-OV-3 ovarian,> 100 µM
same,TGI,HOP-92 NSCLC,> 100 µM
same,TGI,SK-MEL-5 melanoma,> 100 µM
